Laboratory results as given in the supplement of paper PMC10307832.

Experiments:
Assay in all cases: relative viability (nuclei count vs DMSO), 5 days (fraction); higher = more cells survive
FH535 + OSI-027 = compound: CC1=C(C=CC(=C1)[N+](=O)[O-])NS(=O)(=O)C2=C(C=CC(=C2)Cl)Cl [FH535] + COc1cccc2cc(-c3nc([C@H]4CC[C@H](C(=O)O)CC4)n4ncnc(N)c34)[nH]c12 [OSI-027] (partner 0.5 µM)
Method in brief: (§1)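 For relative viability, nuclei counts in treated wells were divided by those in vehicle wells. Lung cancer cell lines had been pin-tool dosed in 1536-well plates the day after seeding and cultured for 5 days, then fixed and stained in one step (final 0.05% Triton X-100, 1% formaldehyde, 1 ug/ml Hoechst) and imaged at 4×. Doses were one drug alone or a fixed anchor-drug dose plus five library-drug doses (not always all listed) in √10 steps, and values are duplicate-plate medians.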

FH535 + Pictilisib = compound: CC1=C(C=CC(=C1)[N+](=O)[O-])NS(=O)(=O)C2=C(C=CC(=C2)Cl)Cl [FH535] + CS(=O)(=O)N1CCN(Cc2cc3nc(-c4cccc5[nH]ncc45)nc(N4CCOCC4)c3s2)CC1 [Pictilisib] (partner 1 µM)
Method in brief: as §1

FH535 + Lapatinib = compound: CC1=C(C=CC(=C1)[N+](=O)[O-])NS(=O)(=O)C2=C(C=CC(=C2)Cl)Cl [FH535] + CS(=O)(=O)CCNCc1ccc(-c2ccc3ncnc(Nc4ccc(OCc5cccc(F)c5)c(Cl)c4)c3c2)o1 [Lapatinib] (partner 2 µM)
Method in brief: as §1

FH535 + Bortezomib = compound: CC1=C(C=CC(=C1)[N+](=O)[O-])NS(=O)(=O)C2=C(C=CC(=C2)Cl)Cl [FH535] + CC(C)C[C@H](NC(=O)[C@H](Cc1ccccc1)NC(=O)c1cnccn1)B(O)O [Bortezomib] (partner 0.002 µM)
Method in brief: as §1

FH535 + Navitoclax = compound: CC1=C(C=CC(=C1)[N+](=O)[O-])NS(=O)(=O)C2=C(C=CC(=C2)Cl)Cl [FH535] + CC1(C)CCC(c2ccc(Cl)cc2)=C(CN2CCN(c3ccc(C(=O)NS(=O)(=O)c4ccc(N[C@H](CCN5CCOCC5)CSc5ccccc5)c(S(=O)(=O)C(F)(F)F)c4)cc3)CC2)C1 [Navitoclax] (partner 0.5 µM)
Method in brief: as §1

Cell Line	relative viability (FH535 + OSI-027; first compound 0.04 µM)	relative viability (FH535 + OSI-027; first compound 0.1265 µM)	relative viability (FH535 + OSI-027; first compound 0.4 µM)	relative viability (FH535 + OSI-027; first compound 1.265 µM)	relative viability (FH535 + Pictilisib; first compound 0.04 µM)	relative viability (FH535 + Pictilisib; first compound 0.1265 µM)	relative viability (FH535 + Pictilisib; first compound 0.4 µM)	relative viability (FH535 + Pictilisib; first compound 1.265 µM)	relative viability (FH535 + Lapatinib; first compound 0.04 µM)	relative viability (FH535 + Lapatinib; first compound 0.1265 µM)	relative viability (FH535 + Lapatinib; first compound 0.4 µM)	relative viability (FH535 + Lapatinib; first compound 1.265 µM)	relative viability (FH535 + Bortezomib; first compound 0.04 µM)	relative viability (FH535 + Bortezomib; first compound 0.1265 µM)	relative viability (FH535 + Bortezomib; first compound 0.4 µM)	relative viability (FH535 + Bortezomib; first compound 1.265 µM)	relative viability (FH535 + Navitoclax; first compound 0.04 µM)	relative viability (FH535 + Navitoclax; first compound 0.1265 µM)	relative viability (FH535 + Navitoclax; first compound 0.4 µM)	relative viability (FH535 + Navitoclax; first compound 1.265 µM)
NCI-H650	0.465	0.515	0.433	0.344	0.766	0.972	0.959	0.643	0.718	0.886	0.703	0.68	0.704	0.854	0.794	0.506				
NCI-H2009	0.58	0.627	0.566	0.486	0.753	0.87	0.724	0.763	0.82	0.859	0.853	0.656	0.92	0.984	0.896	0.58	1.11	1.13	1.09	0.847
EPLC-272H	0.27	0.296	0.279	0.238	0.263	0.349	0.299	0.249	0.677	1.1	0.827	0.831	0.788	0.967	0.925	0.848	1.04	1.22	1.07	0.926
NCI-H596	0.697	0.551	0.55	0.652	0.347	0.385	0.39	0.344	1.06	1.03	0.985	0.94	0.915	1.09	1.19	0.952	0.856	0.967	1.05	0.874
NCI-H3122	0.919	1.06	0.885	0.751	0.583	0.585	0.57	0.564	1.01	0.978	0.999	0.89	0.979	0.976	0.989	0.919	1.02	1.05	1.01	0.947
NCI-H2085	0.644	0.709	0.602	0.508	0.407	0.568	0.481	0.486	0.744	0.686	0.692	0.573	1.14	0.917	0.977	0.819	1.1	1.05	1.05	0.846
NCI-H441	0.529	0.559	0.508	0.527	0.434	0.469	0.443	0.423					0.356	0.351	0.376	0.293	0.669	0.773	0.502	0.365
NCI-H2170	0.72	0.779	0.619	0.554	0.255	0.418	0.315	0.285	0.26	0.332	0.265	0.254					0.612	0.548	0.597	0.54
LC-2-ad	0.66	0.799	0.796	0.577	0.462	0.466	0.162	0.33	0.711	0.97	0.92	0.697	0.802	0.987	0.892	0.722	0.34	0.491	0.549	0.325
SK-MES-1	0.679	0.573	0.565	0.435	0.329	0.384	0.365	0.411	0.493	0.448	0.422	0.412					1.16	1.22	1.12	0.929
NCI-H358	0.737	0.536	0.648	0.476	0.326	0.338	0.247	0.271	0.406	0.422	0.441	0.388								
A-427	0.368	0.496	0.378	0.43	0.642	0.83	0.551	0.685	0.995	1.03	0.962	0.99	0.967	0.982	0.829	0.908	0.968	0.928	0.839	0.865
NCI-H1666	0.866	0.843	0.777	0.705	0.481	0.443	0.404	0.4	0.601	0.623	0.634	0.421	0.725	0.882	0.705	0.625	0.934	0.956	1.07	0.693
LOU-NH91	0.708	0.815	0.557	0.397	0.471	0.554	0.48	0.339	0.726	0.667	0.6	0.408	0.504	0.497	0.527	0.37	0.602	0.736	0.695	0.233
ABC-1	0.446	0.418	0.452	0.414	0.601	0.878	0.702	0.735	1.21	1.08	1.36	0.983	0.331	0.26	0.33	0.34				
NCI-H1651	0.675	0.695	0.618	0.507	0.572	0.504	0.562	0.509	0.815	0.729	0.731	0.669	0.876	0.911	0.889	0.779	1.15	1.2	1.05	0.864
